# Columns and labels:
# [1] = biological target: T1, guinea pig histamine H4 receptor (Cavia porcellus, UniProt Q91ZY3); details: read-out: Guinea Pig Ki
# [2] = biological target: T2, human histamine H4 receptor (Homo sapiens, UniProt Q9H3N8); details: pH 4
# [3] = biological target: T1, guinea pig histamine H4 receptor; details: read-out: ^3H-histamine Kd
# [4] = biological target: T2, human histamine H4 receptor
# T2 sequence (Q9H3N8 whole entry): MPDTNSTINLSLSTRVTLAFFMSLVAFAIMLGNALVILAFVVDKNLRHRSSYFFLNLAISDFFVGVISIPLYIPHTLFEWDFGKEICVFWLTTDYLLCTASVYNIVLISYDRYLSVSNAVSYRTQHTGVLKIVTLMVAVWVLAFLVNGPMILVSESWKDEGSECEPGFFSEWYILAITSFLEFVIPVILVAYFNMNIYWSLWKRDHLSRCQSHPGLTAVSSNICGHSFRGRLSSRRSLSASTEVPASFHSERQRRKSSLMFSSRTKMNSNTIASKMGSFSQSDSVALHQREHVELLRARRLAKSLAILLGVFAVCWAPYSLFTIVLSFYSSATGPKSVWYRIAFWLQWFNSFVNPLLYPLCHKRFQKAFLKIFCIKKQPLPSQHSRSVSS
SMILES,Ki [1] [µM],also measured
C[C@@H](N)Cc1c[nH]cn1 [R-α-methylhistamine],0.486,
NC(=NCc1ccc(Cl)cc1)SCCCc1cnc[nH]1 [Clobenpropit],0.0036,
N=C(N)SCCc1cnc[nH]1 [Imetit],0.03,
S=C(NC1CCCCC1)N1CCC(c2cnc[nH]2)CC1 [Thioperamide],0.083,
NCCc1cnc[nH]1 [^3H-histamine],,Binding affinity in words [2]: high affinity; Kd [3]: 0.02 µM
NCCc1c[nH]cn1 [Histamine],0.027,Activation of the receptor (decrease of forskolin-raised cAMP) [4]: specifically activated
CNCCc1c[nH]cn1 [N-methylhistamine],0.22,
